For this test, the system named is A375-NRAS^Q61K cells. The test is described as follows: CTGlo Cell Viability Assay, A375-NRAS^Q61K (A375.11) cells, 96 hours. It is filed as cell-based, human. Particulars: A375.11 (A375-NRAS^Q61K) cells. In outline:
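Viability as CellTiter-Glo ATP luminescence after 96 h compound exposure at 37 °C; A375.11 (BRAF V600E/NRAS Q61K) cells at 250/well, top final concentration 10 μM in half-log steps. Signal was background-corrected and set relative to DMSO controls. A 4-parameter logistic fit gave GI50 (50% crossing) and Emax.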

Setting [1] is: Homo sapiens, 96 h, lowest % viability achieved.

The structures appear in SMILES notation. Some results are limits rather than exact numbers.

These results are taken from patent US20260297060A1, “COMPOUNDS FOR THE DEGRADATION OF MUTANT BRAF” (C4 THERAPEUTICS, INC., priority 2023, published 2026).

Under “Homo sapiens, 96 h”, `CCN(C)S(=O)(=O)Nc1ccc(F)c(Nc2ccc3ncn([C@H]4COC5(CCN(C6CCC(c7cc8c(cc7F)c(N7CCC(=O)NC7=O)nn8C)CC6)CC5)C4)c(=O)c3c2F)c1C#N` (single isomer, unassigned) [Compound 67] gave a GI50 of less than 1 µM. Also, under setting [1], the Emax was less than 50%.
Taken in the same sequence, the figures for `Cn1nc(N2CCC(=O)NC2=O)c2cc(F)c(N3CC4(CC(N5CCC6(CC5)CC(n5cnc7ccc(Oc8c(F)ccc(NS(=O)(=O)C9CCC9)c8C#N)cc7c5=O)C6)C4)C3)cc21` [Compound 259, N-[2-cyano-3-[3-[7-[2-[3-(2,4-dioxohexahydropyrimidin-1-yl)-5-fluoro-1-methyl-indazol-6-yl]-2-azaspiro[3.3]heptan-6-yl]-7-azaspiro[3.5]nonan-2-yl]-4-oxo-quinazolin-6-yl]oxy-4-fluoro-phenyl]cyclobutanesulfonamide] were less than 1 µM and less than 50%.
For `CCN(C)S(=O)(=O)Nc1ccc(F)c(Oc2ccc3ncn([C@H]4COC5(CCN(C6CCC(c7cc8c(cc7F)c(N7CCC(=O)NC7=O)nn8C)CC6O)CC5)C4)c(=O)c3c2)c1C#N` (single isomer, unassigned) [Compound 43], the GI50 (Homo sapiens, 96 h) is less than 1 µM. In addition, the Emax under setting [1] fell in the range of 50 to 90%.
Compound `CCN(C)S(=O)(=O)Nc1ccc(F)c(Oc2ccc3ncn(C4CC5(CCN(C6CCN(c7cc8c(cc7F)c(N7CCC(=O)NC7=O)nn8C)CC6)CC5)C4)c(=O)c3c2)c1C#N` [Compound 156, 6-[2-cyano-3-[[ethyl(methyl)sulfamoyl]amino]-6-fluoro-phenoxy]-3-[7-[1-[3-(2,4-dioxohexahydropyrimidin-1-yl)-5-fluoro-1-methyl-indazol-6-yl]-4-piperidyl]-7-azaspiro[3.5]nonan-2-yl]-4-oxo-quinazoline] showed a GI50 (Homo sapiens, 96 h) of less than 1 µM. The same compound returned an Emax under setting [1] of 50 to 90%.
Taken in the same sequence, the figures for `CCN(C)S(=O)(=O)Nc1ccc(F)c(Oc2ccc3ncn([C@H]4CCC5(CCN(C6CCC(c7cc8c(cc7F)c(N7CCC(=O)NC7=O)nn8C)CC6)CC5)C4)c(=O)c3c2)c1C#N` (single isomer, unassigned) [Compound 33] were less than 1 µM and less than 50%.
In turn, `CCN(C)S(=O)(=O)Nc1ccc(F)c(Oc2ccc3ncn(C4CC5(CCN(C6CCC(c7cc8c(cc7F)c(N7CCC(=O)NC7=O)nn8C)CC6F)CC5)C4)c(=O)c3c2)c1C#N` (single isomer, unassigned) [Compound 85] showed a GI50 of less than 1 µM. Further, where the note is “lowest % viability achieved”, the “CTGlo A375.11 96 hours Emax” value was “*** (<=50%)”.

Usually GI50 stands for the concentration giving 50% growth inhibition. A lower GI50 goes with greater sensitivity of the cells.
